This passage reports -TdeltaS and Activity results from ChEMBL document CHEMBL5678818, “Discovery of potent SOS1 inhibitors that block RAS activation via disruption of the RAS-SOS1 interaction” (Proc Natl Acad Sci U S A, 2019).

SMILES strings stand for the structures.

Assay [1] has as its target T1, Son of sevenless homolog 1 (Homo sapiens) (UniProt Q07889).
T1 sequence (whole entry): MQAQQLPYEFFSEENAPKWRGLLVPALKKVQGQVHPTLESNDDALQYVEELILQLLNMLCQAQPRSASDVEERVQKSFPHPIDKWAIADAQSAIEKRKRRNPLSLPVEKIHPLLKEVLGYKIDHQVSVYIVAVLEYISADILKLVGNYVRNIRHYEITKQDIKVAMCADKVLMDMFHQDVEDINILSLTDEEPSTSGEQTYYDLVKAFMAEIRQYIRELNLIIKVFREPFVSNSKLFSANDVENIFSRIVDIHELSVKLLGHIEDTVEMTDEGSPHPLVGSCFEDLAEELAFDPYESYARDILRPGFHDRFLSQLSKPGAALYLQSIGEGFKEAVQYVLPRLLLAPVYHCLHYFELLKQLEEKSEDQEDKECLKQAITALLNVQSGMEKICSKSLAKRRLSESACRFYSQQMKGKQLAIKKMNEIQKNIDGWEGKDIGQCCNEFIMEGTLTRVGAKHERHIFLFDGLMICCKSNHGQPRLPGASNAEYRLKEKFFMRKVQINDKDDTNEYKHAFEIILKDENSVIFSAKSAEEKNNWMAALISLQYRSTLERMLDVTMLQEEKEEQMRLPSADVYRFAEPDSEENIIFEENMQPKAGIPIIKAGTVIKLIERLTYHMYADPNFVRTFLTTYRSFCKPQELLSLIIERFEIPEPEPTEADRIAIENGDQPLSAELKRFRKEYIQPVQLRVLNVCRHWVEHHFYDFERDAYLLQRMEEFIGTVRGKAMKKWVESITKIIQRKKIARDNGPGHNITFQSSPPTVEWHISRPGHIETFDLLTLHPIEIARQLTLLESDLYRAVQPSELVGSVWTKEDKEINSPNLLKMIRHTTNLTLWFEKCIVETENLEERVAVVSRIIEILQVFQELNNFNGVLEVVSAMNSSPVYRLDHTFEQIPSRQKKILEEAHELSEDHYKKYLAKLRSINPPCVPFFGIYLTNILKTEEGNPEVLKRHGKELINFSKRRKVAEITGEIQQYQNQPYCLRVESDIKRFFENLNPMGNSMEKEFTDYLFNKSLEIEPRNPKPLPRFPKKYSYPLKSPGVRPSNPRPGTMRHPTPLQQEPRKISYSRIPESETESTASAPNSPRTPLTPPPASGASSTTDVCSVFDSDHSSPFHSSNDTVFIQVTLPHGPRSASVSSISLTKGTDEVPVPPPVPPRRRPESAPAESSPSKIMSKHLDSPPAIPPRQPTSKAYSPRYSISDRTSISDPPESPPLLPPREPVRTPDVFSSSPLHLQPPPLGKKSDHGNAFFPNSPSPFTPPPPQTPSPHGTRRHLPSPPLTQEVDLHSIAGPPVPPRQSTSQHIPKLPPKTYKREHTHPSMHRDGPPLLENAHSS
Description: Binding affinity to N-terminal His10-tagged wild-type recombinant human SOS1 catalytic domain (564 to 1049 residues) expressed in Escherichia coli assessed as change in entropy by ITC analysis. (ITC needs no label: the signal is the heat of the interaction.)

In assay [2] the target is Tyrosine-protein kinase ABL1 (Homo sapiens) (UniProt P00519). The assay can be described thus: Inhibition of nonphosphorylated ABL1 (unknown origin) assessed as residual activity at 1000 nM by KINOMEscan analysis relative to control.
In assay [3] the target is Calcium/calmodulin-dependent protein kinase type II subunit beta (Homo sapiens) (UniProt Q13554). The assay can be described thus: Inhibition of CAMK2B (unknown origin) assessed as residual activity at 1000 nM by KINOMEscan analysis relative to control.
For assay [4], the target named is Cyclin-dependent kinase 3 (Homo sapiens) (UniProt Q00526). The assay can be described thus: Inhibition of CDK3 (unknown origin) assessed as residual activity at 1000 nM by KINOMEscan analysis relative to control.
The target of assay [5] is Cyclin-dependent kinase 4/cyclin D1 (Homo sapiens) (UniProt P11802+P24385). Description: Inhibition of CDK4-cyclin D1 (unknown origin) assessed as residual activity at 1000 nM by KINOMEscan analysis relative to control. In kind it is protein-complex assay.
The target in assay [6] is Ephrin type-A receptor 4 (Homo sapiens) (UniProt P54764). The assay can be described thus: Inhibition of EPHA4 (unknown origin) assessed as residual activity at 1000 nM by KINOMEscan analysis relative to control.
The subject of assay [7] is Receptor-type tyrosine-protein kinase FLT3 (Homo sapiens), P36888 [D835Y]. Description: Inhibition of FLT3 D835Y mutant (unknown origin) assessed as residual activity at 1000 nM by KINOMEscan analysis relative to control.
Assay [8] relates to Mast/stem cell growth factor receptor Kit (Homo sapiens), P10721 [D816V]. The assay can be described thus: Inhibition of KIT D816V mutant (unknown origin) assessed as residual activity at 1000 nM by KINOMEscan analysis relative to control.
Assay [9] concerns the target Mitogen-activated protein kinase kinase kinase kinase 4 (Homo sapiens) (UniProt O95819). The assay can be described thus: Inhibition of MAP4K4 (unknown origin) assessed as residual activity at 1000 nM by KINOMEscan analysis relative to control.
Assay [10] deals with Phosphatidylinositol 4,5-bisphosphate 3-kinase catalytic subunit alpha isoform (Homo sapiens), P42336 [E545K]. The assay can be described thus: Inhibition of PIK3CA E545K mutant (unknown origin) assessed as residual activity at 1000 nM by KINOMEscan analysis relative to control.
Another assay is filed under the species Homo sapiens. Description: Inhibition of PIP5K1C (unknown origin) assessed as residual activity at 1000 nM by KINOMEscan analysis relative to control.
Assay [11] addresses Protein kinase C delta type (Homo sapiens) (UniProt Q05655). Description: Inhibition of PRKCD (unknown origin) assessed as residual activity at 1000 nM by KINOMEscan analysis relative to control.
The target in assay [12] is Ribosomal protein S6 kinase alpha-6 (Homo sapiens) (UniProt Q9UK32). The assay can be described thus: Inhibition of C-terminal RSK4 kinetic domain 2 (unknown origin) assessed as residual activity at 1000 nM by KINOMEscan analysis relative to control.
In assay [13] the target is BDNF/NT-3 growth factors receptor (Homo sapiens) (UniProt Q16620). The assay can be described thus: Inhibition of TRKB (unknown origin) assessed as residual activity at 1000 nM by KINOMEscan analysis relative to control.
Assay [14] has as its target Vascular endothelial growth factor receptor 2 (Homo sapiens) (UniProt P35968). The assay can be described thus: Inhibition of VEGFR2 (unknown origin) assessed as residual activity at 1000 nM by KINOMEscan analysis relative to control.

Mast/stem cell growth factor receptor Kit (Homo sapiens), P10721 [D816V], sequence (P10721 whole entry D816V): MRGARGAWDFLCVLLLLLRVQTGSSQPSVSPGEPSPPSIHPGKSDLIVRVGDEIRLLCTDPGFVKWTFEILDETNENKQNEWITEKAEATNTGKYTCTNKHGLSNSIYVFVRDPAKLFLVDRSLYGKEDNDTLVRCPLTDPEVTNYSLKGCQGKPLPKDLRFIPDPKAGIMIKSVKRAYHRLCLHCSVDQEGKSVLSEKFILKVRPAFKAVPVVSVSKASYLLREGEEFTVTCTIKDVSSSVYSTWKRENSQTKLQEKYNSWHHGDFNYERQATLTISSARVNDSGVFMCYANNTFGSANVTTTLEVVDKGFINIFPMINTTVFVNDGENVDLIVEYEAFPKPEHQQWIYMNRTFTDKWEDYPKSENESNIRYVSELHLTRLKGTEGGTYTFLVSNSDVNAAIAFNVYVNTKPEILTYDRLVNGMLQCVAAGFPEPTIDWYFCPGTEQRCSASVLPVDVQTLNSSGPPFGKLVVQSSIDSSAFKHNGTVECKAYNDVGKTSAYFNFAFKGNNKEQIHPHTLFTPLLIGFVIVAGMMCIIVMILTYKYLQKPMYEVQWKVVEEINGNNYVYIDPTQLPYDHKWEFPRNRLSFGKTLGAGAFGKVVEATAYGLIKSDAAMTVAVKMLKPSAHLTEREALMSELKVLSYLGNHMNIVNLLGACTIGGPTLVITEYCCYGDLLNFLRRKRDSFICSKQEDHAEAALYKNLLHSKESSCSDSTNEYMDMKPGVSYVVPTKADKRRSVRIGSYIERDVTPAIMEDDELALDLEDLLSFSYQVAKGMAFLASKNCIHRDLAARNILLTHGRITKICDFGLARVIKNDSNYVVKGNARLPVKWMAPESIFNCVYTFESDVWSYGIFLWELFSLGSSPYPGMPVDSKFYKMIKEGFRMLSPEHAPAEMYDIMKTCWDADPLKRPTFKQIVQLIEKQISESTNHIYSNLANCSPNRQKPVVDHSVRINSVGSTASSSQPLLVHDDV
Mitogen-activated protein kinase kinase kinase kinase 4 (Homo sapiens), sequence (O95819 2-1239 limits assumed): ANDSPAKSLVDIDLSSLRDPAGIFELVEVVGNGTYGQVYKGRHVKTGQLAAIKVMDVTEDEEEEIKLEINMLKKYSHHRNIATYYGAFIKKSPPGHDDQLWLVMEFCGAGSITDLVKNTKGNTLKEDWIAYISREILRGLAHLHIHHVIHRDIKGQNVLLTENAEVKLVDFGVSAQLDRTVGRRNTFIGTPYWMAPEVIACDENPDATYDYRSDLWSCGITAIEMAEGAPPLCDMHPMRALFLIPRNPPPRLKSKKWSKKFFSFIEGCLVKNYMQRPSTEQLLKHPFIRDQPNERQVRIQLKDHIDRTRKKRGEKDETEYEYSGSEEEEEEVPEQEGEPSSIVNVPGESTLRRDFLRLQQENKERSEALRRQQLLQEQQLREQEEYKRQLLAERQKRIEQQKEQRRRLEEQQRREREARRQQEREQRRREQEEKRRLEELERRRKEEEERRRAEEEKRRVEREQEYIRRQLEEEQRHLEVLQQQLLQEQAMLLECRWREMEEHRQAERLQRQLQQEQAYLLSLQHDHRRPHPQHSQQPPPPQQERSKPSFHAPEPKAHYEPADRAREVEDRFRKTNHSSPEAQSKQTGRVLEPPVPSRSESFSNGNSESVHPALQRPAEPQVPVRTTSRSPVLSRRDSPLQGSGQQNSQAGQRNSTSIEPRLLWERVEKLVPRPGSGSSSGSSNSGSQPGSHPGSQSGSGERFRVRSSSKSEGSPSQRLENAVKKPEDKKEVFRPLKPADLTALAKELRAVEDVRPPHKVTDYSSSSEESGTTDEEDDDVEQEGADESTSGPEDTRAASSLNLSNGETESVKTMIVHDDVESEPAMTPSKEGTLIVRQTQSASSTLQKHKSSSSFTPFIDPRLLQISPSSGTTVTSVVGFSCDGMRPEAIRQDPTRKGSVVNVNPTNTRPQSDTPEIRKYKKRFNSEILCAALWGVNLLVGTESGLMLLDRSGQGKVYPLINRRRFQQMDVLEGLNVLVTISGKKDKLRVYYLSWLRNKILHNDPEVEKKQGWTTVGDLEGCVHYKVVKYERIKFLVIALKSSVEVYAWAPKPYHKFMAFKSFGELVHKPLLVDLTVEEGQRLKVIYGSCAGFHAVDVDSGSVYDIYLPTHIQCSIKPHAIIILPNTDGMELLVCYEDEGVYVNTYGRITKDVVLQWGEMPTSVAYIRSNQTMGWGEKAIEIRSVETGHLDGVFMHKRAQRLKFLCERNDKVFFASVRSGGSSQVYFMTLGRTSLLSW
Cyclin-dependent kinase 3 (Homo sapiens), sequence (Q00526 whole entry, looked up): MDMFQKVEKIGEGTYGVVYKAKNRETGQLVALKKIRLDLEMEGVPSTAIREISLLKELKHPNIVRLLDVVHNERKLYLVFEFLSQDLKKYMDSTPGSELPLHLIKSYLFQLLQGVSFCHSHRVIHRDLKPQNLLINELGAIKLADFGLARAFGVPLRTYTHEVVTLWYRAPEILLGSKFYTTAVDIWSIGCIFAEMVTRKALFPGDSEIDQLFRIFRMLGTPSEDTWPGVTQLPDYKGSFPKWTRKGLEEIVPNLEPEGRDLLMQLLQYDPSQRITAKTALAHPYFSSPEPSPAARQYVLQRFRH
Vascular endothelial growth factor receptor 2 (Homo sapiens), sequence (P35968 whole entry): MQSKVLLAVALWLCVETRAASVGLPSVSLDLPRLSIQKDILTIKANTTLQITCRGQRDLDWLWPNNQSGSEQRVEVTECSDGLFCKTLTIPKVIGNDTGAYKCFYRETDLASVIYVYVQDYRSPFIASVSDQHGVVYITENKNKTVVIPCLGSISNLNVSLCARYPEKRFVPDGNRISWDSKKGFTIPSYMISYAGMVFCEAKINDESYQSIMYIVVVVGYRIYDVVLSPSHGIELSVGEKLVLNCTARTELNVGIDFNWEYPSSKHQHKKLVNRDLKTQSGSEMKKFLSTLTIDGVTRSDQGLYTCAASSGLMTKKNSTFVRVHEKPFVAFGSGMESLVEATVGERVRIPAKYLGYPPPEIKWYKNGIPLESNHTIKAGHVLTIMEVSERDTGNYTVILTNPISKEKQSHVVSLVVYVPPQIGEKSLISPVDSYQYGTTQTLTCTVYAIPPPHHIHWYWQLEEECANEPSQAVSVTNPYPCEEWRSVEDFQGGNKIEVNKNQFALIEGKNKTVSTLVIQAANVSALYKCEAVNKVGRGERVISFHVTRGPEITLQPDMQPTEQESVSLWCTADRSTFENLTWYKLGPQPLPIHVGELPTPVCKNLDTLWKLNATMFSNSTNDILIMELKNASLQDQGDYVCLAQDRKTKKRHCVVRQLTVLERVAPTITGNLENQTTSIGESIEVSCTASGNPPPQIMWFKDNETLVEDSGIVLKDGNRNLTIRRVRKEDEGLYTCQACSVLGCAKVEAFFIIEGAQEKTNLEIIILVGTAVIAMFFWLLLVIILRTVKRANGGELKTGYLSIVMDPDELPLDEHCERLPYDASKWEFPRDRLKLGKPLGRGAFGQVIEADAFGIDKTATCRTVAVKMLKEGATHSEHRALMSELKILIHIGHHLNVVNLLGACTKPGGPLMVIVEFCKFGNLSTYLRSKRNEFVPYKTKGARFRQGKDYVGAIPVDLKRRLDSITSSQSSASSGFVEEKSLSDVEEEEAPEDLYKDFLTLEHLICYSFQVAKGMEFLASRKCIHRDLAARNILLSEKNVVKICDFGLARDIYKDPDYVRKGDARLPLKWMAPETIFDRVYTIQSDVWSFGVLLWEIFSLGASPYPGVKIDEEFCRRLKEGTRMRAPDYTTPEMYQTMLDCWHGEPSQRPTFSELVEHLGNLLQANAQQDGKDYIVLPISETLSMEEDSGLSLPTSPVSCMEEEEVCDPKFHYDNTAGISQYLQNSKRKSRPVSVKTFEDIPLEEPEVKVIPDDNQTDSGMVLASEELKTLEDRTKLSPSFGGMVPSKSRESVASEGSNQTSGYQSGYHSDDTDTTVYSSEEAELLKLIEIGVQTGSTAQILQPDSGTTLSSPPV
Ribosomal protein S6 kinase alpha-6 (Homo sapiens), sequence (Q9UK32 whole entry, the tested form may be a part): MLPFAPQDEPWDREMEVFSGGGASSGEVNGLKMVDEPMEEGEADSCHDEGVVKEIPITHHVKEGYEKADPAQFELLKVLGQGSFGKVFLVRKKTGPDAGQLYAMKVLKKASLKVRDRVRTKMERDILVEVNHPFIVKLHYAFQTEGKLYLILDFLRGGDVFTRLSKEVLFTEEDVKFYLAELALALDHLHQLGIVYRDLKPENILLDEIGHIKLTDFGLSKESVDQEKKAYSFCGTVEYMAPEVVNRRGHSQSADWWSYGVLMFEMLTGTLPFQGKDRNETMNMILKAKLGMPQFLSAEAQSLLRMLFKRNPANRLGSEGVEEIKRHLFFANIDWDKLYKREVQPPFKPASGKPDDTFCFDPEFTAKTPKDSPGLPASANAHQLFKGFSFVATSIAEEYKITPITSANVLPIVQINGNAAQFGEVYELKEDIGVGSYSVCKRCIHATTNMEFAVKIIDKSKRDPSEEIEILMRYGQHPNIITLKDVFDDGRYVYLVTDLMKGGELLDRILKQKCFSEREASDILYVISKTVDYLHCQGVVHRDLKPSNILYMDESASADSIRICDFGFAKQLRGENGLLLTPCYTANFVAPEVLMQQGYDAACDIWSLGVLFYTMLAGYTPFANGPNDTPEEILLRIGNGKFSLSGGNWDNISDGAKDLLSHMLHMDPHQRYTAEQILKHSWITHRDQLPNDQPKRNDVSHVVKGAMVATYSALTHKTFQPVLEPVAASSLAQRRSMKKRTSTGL

Regarding `COc1cc2ncnc(N[C@H](C)c3cccc4ccccc34)c2cc1OC`, the -TdeltaS in assay [1] is 5.5 kcal/mol. The Activity in assay [2] was 100%; in assay [3], 96%; in assay [4] it was 97%; in assay [5], 98%; in assay [6] it was 95%; in assay [7], 96%. Besides, the Activity in assay [8] stood at 96%; in [9], 100%; in [10] it was 98%; in the assay listed under Homo sapiens it was 82%; in assay [11], 81%; in [12] it was 95%. Moreover, the Activity was 100% in assay [13] and 78% in [14].

On to `CNCc1ccccc1-c1csc([C@@H](C)Nc2nc(C)nc3cc(OC)c(OC)cc23)c1` [BAY-293], for which the -TdeltaS in assay [1] came to 5.5 kcal/mol.

On to `COc1cc2nc(C)nc(N[C@H](C)c3cccc(-c4cn[nH]c4)c3)c2cc1OC`, for which the Activity in [2] was determined as 54%; in assay [3], 97%; in assay [4] it was 90%; in assay [5] it was 100%; in assay [6], 96%; in assay [7] it was 89%. In addition, the Activity in assay [8] came out at 55%; in assay [9], 98%; in assay [10], 54%; in the assay filed under Homo sapiens, 75%; in assay [11] it was 59%; in [12], 53%. The Activity in assay [13] turned out to be 98%; in assay [14], 100%.
